Measurements published in US11034650B2, “Compounds useful for treating a Mannheimia haemolytica or Histophilus somni infection” (Intervet Inc., priority 2016, dated 2021).
≈ marks a conversion by molar mass, not a printed value.

Experiments:
Assay type in all cases: cell-based
[1] = test system: Mannheimia haemolytica MH 12587 (1071, BRD field isolate, macrolide-resistance: erm+, E+); test: MIC, broth-microdilution (CLSI VET01-A4), strain MH 12587; details: Mannheimia haemolytica strain MH 12587, broth-microdilution; unit assumed
Method in brief: (§1)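 Growth inhibition is scored visually on a doubling dilution series. The reported MIC corresponds to the lowest concentration free of turbidity, with results assessed under CLSI VET01-S3.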

[2] = test system: Mannheimia haemolytica MH 6357 (M7/2, reference strain, cattle infection strain); test: MIC, broth-microdilution (CLSI VET01-A4), strain MH 6357; details: Mannheimia haemolytica strain MH 6357, broth-microdilution; unit assumed
Method in brief: as §1

[3] = test system: Pasteurella multocida PM 10775 (080130003051, BRD field isolate); test: MIC, broth-microdilution (CLSI VET01-A4), strain PM 10775; details: Pasteurella multocida strain PM 10775, broth-microdilution; unit assumed
Method in brief: as §1

[4] = test system: Mannheimia haemolytica MH 13093 (XB0472-6014.1, BRD field isolate); test: MIC, broth-microdilution (CLSI VET01-A4), strain MH 13093; details: Mannheimia haemolytica strain MH 13093, broth-microdilution; unit assumed
Method in brief: as §1

[5] = test system: Mannheimia haemolytica MH 10720 (154, BRD field isolate); test: MIC, broth-microdilution (CLSI VET01-A4), strain MH 10720; details: Mannheimia haemolytica strain MH 10720, broth-microdilution; unit assumed
Method in brief: as §1

[6] = test system: Pasteurella multocida PM 12080 (IV102277-0093, BRD field isolate); test: MIC, broth-microdilution (CLSI VET01-A4), strain PM 12080; details: Pasteurella multocida strain PM 12080, broth-microdilution; unit assumed
Method in brief: as §1

[7] = test system: Pasteurella multocida PM 6267 (P 2225 (L386), reference strain, mouse infection strain); test: MIC, broth-microdilution (CLSI VET01-A4), strain PM 6267; details: Pasteurella multocida strain PM 6267, broth-microdilution; unit assumed
Method in brief: as §1

[8] = test system: Mannheimia haemolytica MH 13065 (XB0446-6003.9, BRD field isolate); test: MIC, broth-microdilution (CLSI VET01-A4), strain MH 13065; details: Mannheimia haemolytica strain MH 13065, broth-microdilution; unit assumed
Method in brief: as §1

[9] = test system: Mannheimia haemolytica MH 6374 (ATCC 33396, reference strain); test: MIC, broth-microdilution (CLSI VET01-A4), strain MH 6374; details: Mannheimia haemolytica strain MH 6374, broth-microdilution; unit assumed
Method in brief: as §1

[10] = test system: Pasteurella multocida PM 6391 (ATCC 43137, reference strain); test: MIC, broth-microdilution (CLSI VET01-A4), strain PM 6391; details: Pasteurella multocida strain PM 6391, broth-microdilution; unit assumed
Method in brief: as §1

Row | SMILES | MIC MH 12587 [1] [µg/mL] | MIC MH 6357 [2] [µg/mL] | MIC PM 10775 [3] [µg/mL] | MIC MH 13093 [4] [µg/mL] | MIC MH 10720 [5] [µg/mL] | MIC PM 12080 [6] [µg/mL] | MIC PM 6267 [7] [µg/mL] | MIC MH 13065 [8] [µg/mL] | MIC MH 6374 [9] [µg/mL] | MIC PM 6391 [10] [µg/mL]
1 | CC(C)(O)[C@H](NC(=O)c1ccc(C#Cc2ccc(CNCc3cccnc3)cc2)cc1)C(=O)NO [Compound 228] | 1.6 (≈ 3.39 µM) | 0.8 (≈ 1.69 µM) | ≤ 0.1 | 0.8 (≈ 1.69 µM) | ≤ 0.1 | ≤ 0.1 | ≤ 0.1 | 0.4 (≈ 0.846 µM) | 0.4 (≈ 0.846 µM) | ≤ 0.1
2 | CC(C)(O)[C@H](NC(=O)c1ccc(C#Cc2ccc(CNCc3ccnc(Cl)c3)cc2)cc1)C(=O)NO [Compound 229] | 0.4 (≈ 0.789 µM) | 0.4 (≈ 0.789 µM) | ≤ 0.1 | 0.4 (≈ 0.789 µM) | ≤ 0.1 | ≤ 0.1 | ≤ 0.1 | 0.2 (≈ 0.394 µM) | 0.4 (≈ 0.789 µM) | ≤ 0.1
3 | CC(C)(O)[C@H](NC(=O)c1ccc(C#Cc2ccc(CNCc3ccccn3)cc2)cc1)C(=O)NO [Compound 230] | 1.6 (≈ 3.39 µM) | 0.8 (≈ 1.69 µM) | ≤ 0.1 | 0.8 (≈ 1.69 µM) | ≤ 0.1 | ≤ 0.1 | ≤ 0.1 | 0.8 (≈ 1.69 µM) | 0.4 (≈ 0.846 µM) | ≤ 0.1
4 | CC(C)(O)[C@H](NC(=O)c1ccc(C#Cc2ccc(CNCc3ccco3)cc2)cc1)C(=O)NO [Compound 231] | 0.8 (≈ 1.73 µM) | 0.4 (≈ 0.867 µM) | ≤ 0.1 | 0.4 (≈ 0.867 µM) | ≤ 0.1 | ≤ 0.1 | ≤ 0.1 | 0.2 (≈ 0.433 µM) | 0.2 (≈ 0.433 µM) | ≤ 0.1
5 | CC(C)(O)C(NC(=O)c1ccc(C#Cc2ccc(CNCc3cccs3)cc2)cc1)C(=O)NO (stereo not drawn) [Compound 232] | 0.4 (≈ 0.838 µM) | 0.4 (≈ 0.838 µM) | ≤ 0.1 | 0.2 (≈ 0.419 µM) | ≤ 0.1 | ≤ 0.1 | ≤ 0.1 | ≤ 0.1 | ≤ 0.1 | ≤ 0.1
6 | Cc1ccc(CNCc2ccc(C#Cc3ccc(C(=O)NC(C(=O)NO)C(C)(C)O)cc3)cc2)cc1 (stereo not drawn) [Compound 233] | 1.6 (≈ 3.3 µM) | 0.8 (≈ 1.65 µM) | ≤ 0.1 | 0.8 (≈ 1.65 µM) | ≤ 0.1 | ≤ 0.1 | ≤ 0.1 | 0.4 (≈ 0.824 µM) | 0.4 (≈ 0.824 µM) | 0.2 (≈ 0.412 µM)
7 | CC(C)(O)C(NC(=O)c1ccc(C#Cc2ccc(CNCC3CCCO3)cc2)cc1)C(=O)NO (stereo not drawn) [Compound 234] | 6.3 (≈ 13.5 µM) | 6.3 (≈ 13.5 µM) | ≤ 0.1 | 6.3 (≈ 13.5 µM) | 0.4 (≈ 0.859 µM) | 0.2 (≈ 0.43 µM) | ≤ 0.1 | 3.1 (≈ 6.66 µM) | 3.1 (≈ 6.66 µM) | 0.4 (≈ 0.859 µM)
8 | CSC(C)(C)[C@H](NC(=O)c1ccc(C#Cc2ccc(CNC3CC3)cc2)cc1)C(=O)NO [Compound 235] | 1.6 (≈ 3.54 µM) | 0.4 (≈ 0.886 µM) | ≤ 0.1 | 0.4 (≈ 0.886 µM) | ≤ 0.1 | ≤ 0.1 | ≤ 0.1 | 0.4 (≈ 0.886 µM) | 0.8 (≈ 1.77 µM) | ≤ 0.1
9 | CSC(C)(C)[C@H](NC(=O)c1ccc(C#Cc2ccc(CN3CCOCC3)cc2)cc1)C(=O)NO [Compound 238] | 3.1 (≈ 6.44 µM) | 1.6 (≈ 3.32 µM) | ≤ 0.1 | 1.6 (≈ 3.32 µM) | 0.8 (≈ 1.66 µM) | ≤ 0.1 | ≤ 0.1 | 1.6 (≈ 3.32 µM) | 3.1 (≈ 6.44 µM) | ≤ 0.1
